Measurements taken from publication PMC5484485, “In vitro and in vivo effects of kisspeptin antagonists p234, p271, p354, and p356 on GPR54 activation” (PLoS ONE, 2017).
Square brackets hold non-standard residues; d marks the D form. Ends that are not written are not given here.

Key:
[1] = test system: LH pulses; conditions: intact and ovariectomized ewes; continuous intracerebroventricular; cited from earlier work
[2] = test system: plasma LH concentration; assay: Other studies with p271 up to 600 μg/kg/h in castrated male dogs and anestrous bitches (unpublished); type: in vivo, dog; conditions: doses of up to 600 μg/kg/h, unpublished data
Description: These doses also had no effect on plasma LH concentration in the castrated male dogs or on the KP10-induced LH response in the female dogs (unpublished data). It is therefore unlikely that the lack of antagonistic effects is related to the dose of 50 μg/kg/h used in the present study.

[3] = target: human GPR54 (Homo sapiens, UniProt Q969F8); assay: Flow cytometric calcium flux assay, response to peptide alone (agonist / intrinsic activity); type: cell-based; parameters: host or cells: rat hematopoietic CHEM1 cells expressing endogenous Galpha15; conditions: any tested concentration, 10^-13 to 10^-5 M; n = 3
Description: In vitro analyses of the effects of kisspeptin and kisspeptin antagonists, were performed using HT[…] cells (rat hematopoietic CHEM1 cells expressing endogenous Gα15 and, stably expressing the human GPR54 receptor (Millipore BV, the Netherlands), CHEM1-GPR54. Cells were counted and suspended in HBSS+++ at a concentration of 5*10^6 cells/ml. To load the cells with the fluorescent dye ester they were incubated in HBSS+++ adjusted to a concentration of 2 μM Fluo-3 AM (Molecular Probes, Life Technologies, the Netherlands) for 1h at 37°C under agitation in the dark. After incubation, the cells were washed by adding HBSS+++ to a volume of 10 ml followed by centrifugation (5 min, 150 x g) to remove excess of Fluo-3AM. […] Thereafter the tube was removed briefly and 25 μl peptide (see below) was added, after which aspiration and analysis continued. For statistical analyses fluorescent data recorded during the time interval 30-60 seconds after initiation of measurement were used. […] Experiments were performed 3 times. Representative flow cytometry results are depicted in Fig 1. […] We then assessed whether these antagonists could compete with KP10 for its receptor. […] For this purpose 25 μl quantities of the antagonists were added to 200 μl of Fluo-3 AM labelled cells (10^6 cells/ml) and incubated for 15 min. […] Peptides p354 and p356 were tested three times with both human and canine KP10; while peptides p234 and p271 were tested three times with human KP10 and once with canine KP10. […] A multivariate general linear model was set up to analyze differences in calcium response between the different concentrations, with Dunnett's test as a post hoc procedure for the antagonists and Bonferroni's test for the agonists.

[4] = test system: plasma LH concentration; assay: Plasma LH in anestrous Beagle bitches during antagonist infusion and after cKP10 bolus; type: in vivo, dog; conditions: n = 6
Text: Thirteen adult anestrous Beagle bitches were used for this study. Six dogs with a median age of 89 months (range 43–122 months) were used as control group, receiving cKP10 without an antagonist. Eight dogs with a median age of 52 months (range 31–116 months) were used for the antagonist experiments. One dog was first used in the control group and 12 months later for the antagonist experiments. Of the eight dogs used for the antagonist experiments, four received p271, p354, and p356. In two of the eight dogs both p354 and p356 were tested, while in the remaining two dogs only p271 was tested, in order to test every antagonist in 6 dogs. The time between testing of different kisspeptin antagonists was at least 5 days (range 5–15 days) to ensure that there were no peptide residues. Kisspeptin antagonist p234 per se was not tested in vivo because p271 is in fact p234 with a penetratin tag to enhance passage across the blood-brain barrier, as has been described for use with peripheral administration.
Kisspeptin antagonists (50 μg/kg/h) were administered continuously for three hours via a catheter in the cephalic vein. Two hours after the start of the infusion, a single bolus of cKP10 (0.5 μg/kg) was administered intravenously. Blood samples were collected from the jugular vein by venipuncture at -40 min and 0 min before the antagonist infusion, and then every 30 min for two hours. After the administration of cKP10, blood samples were collected at 10, 20, 40, and 60 min (i.e., 130, 140, 160, and 180 min after the start of the antagonist infusion).
As a control, KP stimulation tests (without the administration of a kisspeptin antagonist) were performed in six dogs. Blood samples were collected from the jugular vein by venipuncture at -40 min and 0 min before, and then at 10, 20, 40, and 60 min after administration of cKP10 (0.5 μg/kg). Plasma LH concentrations were measured in all blood samples.
Plasma LH concentrations were measured with a heterologous radioimmunoassay validated for the dog, as described previously. The intra- and interassay CVs for values above 0.5 μg/l were 2.3 and 10.5%, respectively, and the limit of quantitation was 0.3 μg/l.
In both groups of dogs (experimental and control), the basal plasma LH concentration was calculated for each dog as the mean of the values at –40 and 0 min before cKP10 or antagonist administration. All LH values that exceeded the mean of all basal samples plus 3 SD were attributed to pulsatile secretion and were treated as outliers and excluded from statistical analysis. Log transformation of plasma LH concentrations was used because data were not normally distributed. A linear mixed model was used to analyze differences in plasma LH concentrations before and after KP10, with or without a kisspeptin antagonist (group effects: p271, p354, p356, and controls), with Bonferroni correction. P<0.05 was considered significant.

[5] = target: T1, CHEM1-GPR54 cells (Homo sapiens, UniProt Q969F8); assay: Preliminary calcium flux assay with adherent CHEM1-GPR54 cells (unpublished); type: cell-based; conditions: too few repeats for statistics
T1 construct: host or cells: rat hematopoietic CHEM1 cells expressing endogenous Galpha15

[6] = antagonist 50 μg/kg/h iv, cKP10 0.5 μg/kg iv

T1 sequence (Q969F8 whole entry): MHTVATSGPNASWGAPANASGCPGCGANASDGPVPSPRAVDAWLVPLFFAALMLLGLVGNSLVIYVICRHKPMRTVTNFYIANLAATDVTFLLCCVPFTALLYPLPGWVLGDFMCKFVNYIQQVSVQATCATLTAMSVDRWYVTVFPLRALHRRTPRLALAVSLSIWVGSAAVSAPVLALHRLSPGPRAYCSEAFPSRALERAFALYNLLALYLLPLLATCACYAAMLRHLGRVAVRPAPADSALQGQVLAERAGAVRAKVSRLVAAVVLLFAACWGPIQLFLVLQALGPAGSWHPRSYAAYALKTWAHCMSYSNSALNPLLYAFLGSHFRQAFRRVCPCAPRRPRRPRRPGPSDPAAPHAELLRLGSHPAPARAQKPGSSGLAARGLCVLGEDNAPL
human GPR54, sequence (Q969F8 whole entry): as above

For “RRMKWKKY[dA]NWNGFG[dW]RF-NH2 [p271, p234 with a penetratin tag]”, the “effect on LH pulses” value [1] is given as “inhibited LH pulses”, the “effect on KP10-induced LH response in female dogs” value ([2]; anestrous bitches) is given as “had no effect” and the “effect on plasma LH concentration in castrated male dogs” value [2] is given as “had no effect”. The intrinsic calcium response [3] was “no significant intrinsic calcium response”, the “Median (and range) plasma LH, t = 30” value ([4]; 30 min of antagonist infusion 50 μg/kg/h iv) was 3.9 (2.2–5.4) μg/L and the “Median (and range) plasma LH, t = 60” value ([4]; 60 min of antagonist infusion 50 μg/kg/h iv) was 5.2 (2.5–10.0) μg/L. For the same substance, the “Median (and range) plasma LH, t = 90” value ([4]; 90 min of antagonist infusion 50 μg/kg/h iv) was 4.5 (2.8–6.3) μg/L, the “Median (and range) plasma LH, t = 120” value ([4]; 120 min of antagonist infusion 50 μg/kg/h iv, before cKP10) was 6.0 (3.2–7.5) μg/L and the “median maximum increment in plasma LH concentration after cKP10 during antagonist administration” value [4, 6] was 12.2 µg/L. For the same substance, the “range of maximum increment in plasma LH concentration after cKP10 during antagonist administration” value [4, 6] was 4.7 to 18.2 µg/L, the “Median (and range) plasma LH, t = 130 / t = 10*” value ([4]; antagonist infusion 50 μg/kg/h iv, 10 min after cKP10 0.5 μg/kg iv) was 16.2 (9.3–24.1) μg/L and the “Median (and range) plasma LH, t = 140 / t = 20*” value ([4]; antagonist infusion 50 μg/kg/h iv, 20 min after cKP10 0.5 μg/kg iv) was 10.0 (5.7–12.6) μg/L. For the same substance, the “Median (and range) plasma LH, t = 160 / t = 40*” value ([4]; antagonist infusion 50 μg/kg/h iv, 40 min after cKP10 0.5 μg/kg iv) was 6.4 (4.8–8.8) μg/L, the “Median (and range) plasma LH, t = 180 / t = 60*” value ([4]; antagonist infusion 50 μg/kg/h iv, 60 min after cKP10 0.5 μg/kg iv) was 4.8 (3.5–7.3) μg/L and the “Median (and range) plasma LH, Basal” value ([4]; before antagonist infusion (mean of -40 and 0 min per dog)) was 4.0 (2.9–5.9) μg/L. The “effect on basal plasma LH concentration” value ([4]; continuous iv 50 μg/kg/h, anestrous bitches) was “did not cause significant alterations” and the “inhibition of KP10-induced calcium response, adherent cells” value [5] was “could not be inhibited”.
